According to article PMC9189931 (Nature chemical biology, 2021):
Entries after “also recorded” stand apart in the source; their conditions may differ. Numbered stars: 1 amine (or outer) side, 2 acyl side, 3 side chain; on linkers, the order of the positions; unused ones are H or OH. Bridge positions count the residues as written; N and C are the ends. Square brackets hold non-standard residues; d marks the D form. Peptide text beside a SMILES is read from it. I, II: the chains in the order shown. Actinocin(9to1) = Cc1c2oc3c(C)ccc(C(=O)[*:1])c3nc-2c(C(=O)[*:2])c(N)c1=O; NMeV = CN[C@H](C(=O)O)C(C)C; Sar = CNCC(=O)O

What was measured:
[1] = biological target: T1, NSD2-PWWP1 (Homo sapiens, UniProt O96028); test: SPR binding to immobilized NSD2-PWWP1
T1 sequence (O96028 208-368): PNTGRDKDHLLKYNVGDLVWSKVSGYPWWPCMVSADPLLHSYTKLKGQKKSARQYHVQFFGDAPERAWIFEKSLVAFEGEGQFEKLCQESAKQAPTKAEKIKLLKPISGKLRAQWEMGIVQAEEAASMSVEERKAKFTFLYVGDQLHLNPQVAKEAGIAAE

[2] = system: fl-NSD2 chromatin association in KMS-11 cells; test: Cell fractionation, NSD2 release from chromatin; type: cell-based; conditions: KMS-11 cell fractionation, 10 μM compound
[3] = system: KMS-11 t(4; 14) MM cells; test: Proliferation of KMS-11 cocultured with OP9 bone marrow stromal cells; type: cell-based; conditions: 5 μM for 10 d before seeding on OP9
[4] = biological target: human sodium-dependent serotonin transporter (Homo sapiens, UniProt P31645); test: NIMH PDSP panel of CNS receptors, channels and transporters; type: binding
[5] = system: endogenous NSD2 localization in U2OS cells; test: Confocal microscopy of endogenous NSD2 nucleolar localization; type: cell-based; conditions: 4 h; for steady-state pool of nucleolar NSD2 under nucleolar perturbation: actinomycin D 50 nM, doxorubicin 1 μM
[6] = system: panel of 33 methyltransferase domains, including NSD1, NSD2, NSD3 and SETD2; test: Methyltransferase selectivity panel; type: biochemical; conditions: 1 and 10 μM compound
[7] = system: ribosomal RNA (rRNA) transcription; test: rRNA transcription; conditions: for pre-rRNA expression levels by RT-qPCR: 5 μM compound at 2, 4, or 16 hours
[8] = system: loci-specific H3K36me2 levels in KMS-11 cells; test: H3K36me2 ChIP-qPCR; type: cell-based; conditions: 5 μM, 72 h
[9] = system: mRNA levels of NSD2 target genes in KMS-11 cells; test: RT-qPCR of NSD2 target genes; type: cell-based; conditions: 5 μM, 72 h
[10] = system: NSD2-GFP localization in U2OS cells; test: Nucleolar colocalization of GFP-tagged NSD2 WT and mutants with RFP-fibrillarin; type: cell-based; conditions: 4 h, 5 μM compound
[11] = biological target: T2, NSD3-PWWP1 interaction with histone H3.3 (Homo sapiens, UniProt Q9BZ95); test: NanoBRET PPI assay, NSD3-PWWP1; type: cell-based; conditions: U2OS cells, 10 μM compound
T2 sequence (Q9BZ95 270-333 limits assumed): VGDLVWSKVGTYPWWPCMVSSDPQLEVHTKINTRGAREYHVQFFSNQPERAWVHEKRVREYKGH

[12] = system: adherent or hematopoietic malignancy cell lines; test: Cytotoxicity profiling; type: cell-based; conditions: up to 5 μM over 3–12 d
[13] = system: global H3K36 methylation in KMS-11 cells; test: Western blotting for global H3K36 methylation; type: cell-based; conditions: 72 h
[14] = biological target: T3, endogenous NSD2 (Homo sapiens, UniProt O96028); test: UNC7096 chemical pulldown and chemical proteomics in KMS-11 whole-cell lysates; type: binding
T3 sequence (O96028 1-627 limits assumed): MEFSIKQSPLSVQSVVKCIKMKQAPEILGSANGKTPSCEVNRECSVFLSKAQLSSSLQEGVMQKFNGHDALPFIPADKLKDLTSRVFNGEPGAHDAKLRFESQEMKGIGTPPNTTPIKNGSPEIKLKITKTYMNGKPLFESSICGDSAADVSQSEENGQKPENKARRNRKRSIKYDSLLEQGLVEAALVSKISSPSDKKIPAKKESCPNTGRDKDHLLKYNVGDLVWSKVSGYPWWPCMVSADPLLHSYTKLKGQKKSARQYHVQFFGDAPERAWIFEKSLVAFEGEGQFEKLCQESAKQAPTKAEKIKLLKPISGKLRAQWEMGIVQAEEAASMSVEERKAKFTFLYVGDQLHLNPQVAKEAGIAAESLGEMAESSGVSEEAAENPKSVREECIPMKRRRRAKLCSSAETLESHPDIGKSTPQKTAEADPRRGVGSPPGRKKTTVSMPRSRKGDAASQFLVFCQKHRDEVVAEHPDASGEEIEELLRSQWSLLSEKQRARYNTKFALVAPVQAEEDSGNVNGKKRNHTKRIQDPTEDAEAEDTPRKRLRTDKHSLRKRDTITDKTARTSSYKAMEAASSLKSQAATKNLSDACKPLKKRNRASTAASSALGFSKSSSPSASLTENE

[15] = system: 15 other human PWWP domains; conditions: DSF, 100 μM compound
[16] = biological target: T4, dsDNA binding to NSD2-PWWP1 (Homo sapiens, UniProt O96028); test: Fluorescence polarization DNA binding and displacement assay; conditions: FP
T4 sequence (O96028 208-368): T1 sequence (O96028 208-368)

[17] = biological target: T5, NSD2-PWWP1 interaction with nucleosomal H3K36me2 (Homo sapiens, UniProt O96028); test: AlphaScreen; type: binding
T5 sequence (O96028 208-368): T1 sequence (O96028 208-368)

[18] = biological target: T6, fl-NSD2 interaction with nucleosomal H3K36me2 (Homo sapiens, UniProt O96028); test: AlphaScreen; type: binding; conditions: read-out: IC50, disengagement of fl-NSD2 from nucleosomal H3K36me2, in the presence of SSD (2 μg ml^−1)
T6 sequence (O96028 1-1365): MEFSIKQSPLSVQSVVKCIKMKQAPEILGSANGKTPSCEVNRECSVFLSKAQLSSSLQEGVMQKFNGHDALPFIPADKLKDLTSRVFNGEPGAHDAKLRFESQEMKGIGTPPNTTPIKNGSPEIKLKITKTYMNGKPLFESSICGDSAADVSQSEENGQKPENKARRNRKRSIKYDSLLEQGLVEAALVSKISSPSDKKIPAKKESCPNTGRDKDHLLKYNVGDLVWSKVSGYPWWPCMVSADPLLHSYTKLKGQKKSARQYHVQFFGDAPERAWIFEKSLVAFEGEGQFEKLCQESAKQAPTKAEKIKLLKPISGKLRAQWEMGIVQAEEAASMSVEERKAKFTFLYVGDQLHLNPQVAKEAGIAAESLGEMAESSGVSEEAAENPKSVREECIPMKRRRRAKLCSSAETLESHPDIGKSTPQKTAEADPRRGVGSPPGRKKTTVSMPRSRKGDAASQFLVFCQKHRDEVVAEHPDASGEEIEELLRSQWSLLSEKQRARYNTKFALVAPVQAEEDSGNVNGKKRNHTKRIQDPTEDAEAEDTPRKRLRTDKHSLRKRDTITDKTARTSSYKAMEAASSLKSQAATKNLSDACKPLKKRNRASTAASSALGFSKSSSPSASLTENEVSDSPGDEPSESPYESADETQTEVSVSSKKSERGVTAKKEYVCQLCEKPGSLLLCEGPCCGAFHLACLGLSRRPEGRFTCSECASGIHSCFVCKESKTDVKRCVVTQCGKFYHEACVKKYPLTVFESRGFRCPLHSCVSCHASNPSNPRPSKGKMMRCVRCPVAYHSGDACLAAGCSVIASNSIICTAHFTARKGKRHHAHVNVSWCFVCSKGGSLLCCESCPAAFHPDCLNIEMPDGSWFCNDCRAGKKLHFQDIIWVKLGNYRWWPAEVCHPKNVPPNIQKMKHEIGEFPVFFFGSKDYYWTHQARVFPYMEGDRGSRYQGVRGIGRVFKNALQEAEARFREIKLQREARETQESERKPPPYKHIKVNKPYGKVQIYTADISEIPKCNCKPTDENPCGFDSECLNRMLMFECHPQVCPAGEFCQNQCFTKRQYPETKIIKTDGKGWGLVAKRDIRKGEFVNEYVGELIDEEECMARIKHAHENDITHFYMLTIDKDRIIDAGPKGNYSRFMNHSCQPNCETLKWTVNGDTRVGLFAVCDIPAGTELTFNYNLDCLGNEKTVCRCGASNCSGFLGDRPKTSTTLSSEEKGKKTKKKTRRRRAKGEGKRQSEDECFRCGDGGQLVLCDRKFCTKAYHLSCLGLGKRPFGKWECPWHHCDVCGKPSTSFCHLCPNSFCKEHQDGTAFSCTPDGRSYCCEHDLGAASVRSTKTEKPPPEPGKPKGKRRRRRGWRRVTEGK

Sequence of human sodium-dependent serotonin transporter (P31645 whole entry): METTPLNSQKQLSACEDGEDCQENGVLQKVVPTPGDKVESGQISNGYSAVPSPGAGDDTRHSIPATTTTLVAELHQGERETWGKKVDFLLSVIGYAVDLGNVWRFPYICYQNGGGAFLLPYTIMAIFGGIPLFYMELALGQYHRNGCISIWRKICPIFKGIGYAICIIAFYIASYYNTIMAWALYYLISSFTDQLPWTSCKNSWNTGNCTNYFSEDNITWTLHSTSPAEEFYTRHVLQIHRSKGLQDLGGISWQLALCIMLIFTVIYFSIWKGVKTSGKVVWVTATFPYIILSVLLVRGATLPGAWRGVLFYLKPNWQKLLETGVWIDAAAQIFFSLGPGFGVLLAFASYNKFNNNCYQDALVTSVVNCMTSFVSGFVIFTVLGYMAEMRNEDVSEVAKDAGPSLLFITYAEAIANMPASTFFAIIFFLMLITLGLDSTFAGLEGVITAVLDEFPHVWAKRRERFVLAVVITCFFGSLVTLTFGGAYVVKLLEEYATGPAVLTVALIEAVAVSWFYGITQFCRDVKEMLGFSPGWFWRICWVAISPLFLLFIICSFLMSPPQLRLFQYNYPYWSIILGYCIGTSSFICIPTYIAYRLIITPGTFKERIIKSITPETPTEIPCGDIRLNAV

SMILES: O=C1COc2cc(C(=O)N(Cc3cccs3)C3CC3)ccc2N1 [MRT866]
- Kd [1]: 349 ± 19 nM

SMILES: O=C1COc2cc(C(=O)N(Cc3ccc(C(=O)Nc4ccncn4)cc3)C3CC3)ccc2N1 [UNC6934]
- release of fl-NSD2 from chromatin [2]: modest release
- proliferation of KMS-11 cells grown on bone marrow stroma [3]: no changes
- Ki [4]: 1400 ± 800 nM
- inhibition at 10 µM [4]: > 50%
- NSD2 signal within nucleoli ([5]; 5 μM compound): increase in NSD2 signal within nucleoli
- correlation (PCC) between NSD2 and fibrillarin signals ([5]; 5 μM compound): significant increase
- inhibition of methyltransferases [6]: did not inhibit any
- effect on ribosomal RNA (rRNA) transcription ([7]; 5 μM compound): no significant effect
- pre-rRNA expression levels by RT-qPCR [7]: no major effect
- loci-specific H3K36me2 levels [8]: did not observe changes
- mRNA levels of NSD2 target genes [9]: did not observe changes
- nucleolar localization of PWWP1 aromatic cage mutant NSD2-GFP [10]: no further increase
- nucleolar signal of WT NSD2-GFP [10]: increase in nucleolar signal
- nucleolar colocalization of PHD2 and PWWP2 mutant NSD2-GFP ([10]; H762R, W894A): additive effect
- BRET signal of NSD3-PWWP1 [11]: unaffected
- acute cytotoxic effects [12]: no acute cytotoxic effects
- global H3K36 methylation [13]: no significant change; also recorded: no changes

SMILES: O=C(CCCC[C@@H]1SC[C@@H]2NC(=O)N[C@@H]21)NCCOCCOCCOCCOCCOCCOCCOCCOCCOCCOCCOCCNC(=O)c1ccc(NC(=O)c2ccc(CN(C(=O)c3ccc4c(c3)OCC(=O)N4)C3CC3)cc2)cc1 [UNC7096]
- enrichment of NSD2-short and NSD2-long isoforms by pulldown ([14]; KMS-11 whole-cell lysates, immunoblotting): efficiently enriched
- Kd [1]: 46 nM

SMILES: CC(C)N(Cc1ccc(C(=O)Nc2ccncn2)cc1)C(=O)c1ccc2c(c1)OCC(=O)N2 [UNC7145]
- selectivity over other PWWP domains [15]: inactive
- pattern of dsDNA binding to NSD2-PWWP1 in the presence of compound ([16]; 20 μM compound, NSD2-PWWP1 up to 2.5 μM): No significant difference
- displacement of fluorescein-labelled dsDNA from NSD2-PWWP1 ([16]; compound up to 25 μM): no significant effect
- proteins depleted from UNC7096 pulldown by competition ([14]; label-free proteomics, 20 μM compound, relative to DMSO): did not considerably alter the enrichment profile
- NSD2 signal within nucleoli ([5]; 5 μM compound): no effect
- inhibition of methyltransferases [6]: inactive
- IC50, disruption of NSD2-PWWP1 interaction with nucleosomal H3K36me2 [17]: no measurable effect
- pre-rRNA expression levels by RT-qPCR [7]: no major effect
- acute cytotoxic effects [12]: no acute cytotoxic effects
- global H3K36 methylation [13]: no significant change
- IC50 [18]: 5100 ± 1000 nM

SMILES: Cc1c2oc3c(C)ccc(C(=O)N[C@@H]4C(=O)N[C@H](C(C)C)C(=O)N5CCC[C@H]5C(=O)N(C)CC(=O)N(C)[C@@H](C(C)C)C(=O)O[C@@H]4C)c3nc-2c(C(=O)N[C@@H]2C(=O)N[C@H](C(C)C)C(=O)N3CCC[C@H]3C(=O)N(C)CC(=O)N(C)[C@@H](C(C)C)C(=O)O[C@@H]2C)c(N)c1=O [actinomycin D, reference compound] (I: T[dV]P[Sar][NMeV] / II: T[dV]P[Sar][NMeV]; ester I:1-I:C, II:1-II:C; linker I:N-II:N via Actinocin(9to1))
- steady-state pool of nucleolar NSD2 under nucleolar perturbation [5]: sensitive

SMILES: COc1cccc2c1C(=O)c1c(O)c3c(c(O)c1C2=O)C[C@@](O)(C(=O)CO)C[C@@H]3O[C@H]1C[C@H](N)[C@H](O)[C@H](C)O1 [doxorubicin, reference compound]
- steady-state pool of nucleolar NSD2 under nucleolar perturbation [5]: sensitive
